In article PMC5344293, “A phase 1 dose-escalation and expansion study of binimetinib (MEK162), a potent and selective oral MEK1/2 inhibitor” (British Journal of Cancer, 2017):
Several values for one entry are separate records, joined by “and”; a condition that tells them apart may be missing. Equal values may be shown once.

Tests used:
pERK = assay: Skin punch biopsy pERK immunohistochemistry; type: in vivo, human; conditions: cycle 1 day 15
Experimental: (§1) Skin punch biopsies (with hair follicles, if feasible) were obtained from patients in the dose-escalation phase and colorectal cancer expansion phase cohorts pre-dose at baseline and post dose within 7 days of cycle 1 day 15 for measurement of Ki67 and pERK expression. Ki67 and pERK expression were determined by immunohistochemistry using a Ki67 rabbit monoclonal antibody (clone 30-9; Ventana Medical Systems, Inc., Tucson, AZ, USA) and a pERK rabbit monoclonal antibody (Thr202/Tyr204, clone 20G11; Cell Signaling Technology, Inc., Danvers, MA), respectively, visualised with DAB and counterstained with haematoxylin. Ki67 was expressed as percentage of tumour cells with positive stain; pERK was expressed as an H-score.

advanced solid tumours = assay: Tumour response, RECIST version 1.1; type: in vivo, human
Experimental: Efficacy was assessed through radiologic scans and clinical measurements of disease sites (if applicable), and evaluation of serologic tumour markers in patient blood samples as appropriate for tumour type. Tumour assessments were performed within 21 days before the first dose and then every 6 weeks starting at the end of cycle 2. Tumour response was evaluated by the investigator using Response Evaluation Criteria in Solid Tumours (RECIST) version 1.1 criteria. Tumour marker levels were incorporated into the overall response assessment per RECIST.
All patients who received ⩾1 dose of binimetinib were included in the safety analysis. Patients in the safety analysis who had ⩾1 measurable lesion at baseline and at least 1 post-baseline disease assessment were evaluable for efficacy. Kaplan–Meier estimates of progression-free survival (PFS) and overall survival (OS) were performed for patients in the expansion phase ([Kaplan and Meier, 1958]) using SAS Version 9.2 (SAS Institute Inc., Cary, NC, USA).

[1] = Phase 1 dose escalation: DLTs and MTD; type: in vivo
Experimental: This multicentre, open-label, phase 1 study comprised two phases: a dose-escalation phase and an expansion phase. In the dose-escalation phase, a modified 3+3 design was employed to determine the MTD of binimetinib administered orally twice daily (BID) in a 21-day treatment cycles. A single dose of binimetinib was administered on day 1 and then BID continuously beginning on day 2 of cycle 1. A starting dose of 30 mg BID was utilised for the dose-escalation phase. The dose was escalated in cohorts of at least three evaluable patients at 45 mg BID, 60 mg BID, and 80 mg BID until MTD was determined. Patients in the expansion phase received continuous BID treatment with binimetinib beginning on day 1 of cycle 1 at the MTD determined in the dose-escalation phase. Patients were instructed to take BID doses 12±2 h apart with water, irrespective of food.
Dose-limiting toxicities (DLTs) were any adverse event (AE) not clearly attributable to the patient's disease, including haematologic toxicities of grade 4 neutropenia for ⩾5 days, febrile neutropenia, grade 4 thrombocytopenia, and grade 3 thrombocytopenia with bleeding. […]

NRAS-mutant melanoma [2] = test system: NRAS-mutant melanoma; design: method as in Dummer et al, 2016; conditions: patients with NRAS-mutant melanoma; ref Dummer et al, 2016; cited from earlier work
Ki67 = assay: Skin punch biopsy Ki67 immunohistochemistry; type: in vivo, human; conditions: cycle 1 day 15
Experimental: as §1

NRAS-mutant melanoma [3] = test system: NRAS-mutant melanoma; design: method as in Ascierto et al, 2013; Van Herpen et al, 2015; conditions: patients with advanced NRAS-mutant melanoma; ref Ascierto et al, 2013; Van Herpen et al, 2015; cited from earlier work
[4] = test system: C-reactive protein, interferon, IL-10, IL-12p70, IL-1β, IL-6, or IL-8; assay: Serum cytokines other than TNF-α; type: in vivo, human
ERK phosphorylation = test system: ERK phosphorylation; design: method as in Lee et al, 2010; conditions: human cell lines; ref Lee et al, 2010; cited from earlier work
[5] = test system: xenograft models derived from melanoma, colorectal cancer, NSCLC, fibrosarcoma, cholangiocarcinoma, and pancreatic cancer; design: method as in Lee et al, 2010; Woessner et al, 2010; conditions: non-clinical data, ref Lee et al, 2010, Woessner et al; cited from earlier work
[6] = design: method as in Watanabe et al, 2016; conditions: BID; Japanese patients with advanced solid tumours; ref Watanabe et al, 2016; cited from earlier work

Cn1cnc2c(F)c(Nc3ccc(Br)cc3F)c(C(=O)NOCCO)cc21 [binimetinib]
Skin expression of pERK, median (range) percent of baseline (pERK; 30 mg BID (n=4)): 88 (50–100) percent of baseline | Skin expression of pERK, median (range) percent of baseline (pERK; 45 mg BID (n=22)): 66 (38–189) percent of baseline | Skin expression of pERK, median (range) percent of baseline (pERK; 60 mg BID (n=7)): 59 (29–72) percent of baseline | Skin expression of pERK, median (range) percent of baseline (pERK; Total (N=33)): 64 (29–189) percent of baseline | Best response of stable disease, patients (advanced solid tumours): 36% | Objective responses among patients with biliary cancer (advanced solid tumours; 3 of 30 patients with biliary cancer): 10% | Responses in patients with colorectal cancer (advanced solid tumours; KRAS- or BRAF-mutant cohorts): no responses | Objective responses, number of patients (advanced solid tumours; all in patients with biliary cancer): Three | Duration of complete response (advanced solid tumours; biliary cancer): 11.3 months | Duration of partial response (advanced solid tumours; biliary cancer, two patients): 10.2 months and 17.9 months | Objective responses (advanced solid tumours; of 91 patients evaluable for response): 3% | Complete responses, number of patients (advanced solid tumours; patients with biliary cancer): one | Partial responses, number of patients (advanced solid tumours; patients with biliary cancer): two | Median duration of stable disease (advanced solid tumours; range, 0.92–11.53 months): 3.94 months | Recommended phase 2 dose ([1]; human, in vivo, 21 day): 45 mg | Maximum tolerated dose (MTD) ([1]; orally twice daily (BID), 21-day cycles, patients with advanced solid tumours): 60 mg | PFS vs dacarbazine (NRAS-mutant melanoma [2]): significantly longer PFS | Skin expression of Ki67, median (range) percent of baseline (Ki67; 30 mg BID (n=4)): 44 (25–56) percent of baseline | Skin expression of Ki67, median (range) percent of baseline (Ki67; 45 mg BID (n=22)): 33 (6–300) percent of baseline | Skin expression of Ki67, median (range) percent of baseline (Ki67; 60 mg BID (n=7)): 31 (17–100) percent of baseline | Skin expression of Ki67, median (range) percent of baseline (Ki67; Total (N=33)): 33 (6–300) percent of baseline | Response rate (NRAS-mutant melanoma [3]): 15% | Changes in C-reactive protein, interferon, IL-10, IL-12p70, IL-1β, IL-6, or IL-8 [4]: no notable changes | Inhibition of ERK phosphorylation (ERK phosphorylation): markedly inhibits | Anti-tumour activity in xenograft models [5]: broad anti-tumour activity | MTD/recommended phase 2 dose [6]: 45 mg
